Data as given in article PMC7925390 (Frontiers in Microbiology, 2021).
Where two headings read alike, the source gives them in different places. Each block holds one molecule with its values, some of them ahead of it.

Legend:
TsPYK [1] = target: T1, TsPYK (Thermoanaerobacterium saccharolyticum, UniProt I3VV25); assay: Kapp–PEP versus effector concentration, lactate dehydrogenase coupled assay; type: biochemical; conditions: 10 mM ADP, 15 mM MgCl2, 30 °C
T1 construct: gene Tsac_1363; full length with extra-C domain; N-terminal 6XHis tag kept (6XHis-MBP-SUMO tag in later expression); expressed in E. coli FF50 / QTF60 (pykA pykF deleted); homotetramer
T1 sequence (I3VV25 1-583): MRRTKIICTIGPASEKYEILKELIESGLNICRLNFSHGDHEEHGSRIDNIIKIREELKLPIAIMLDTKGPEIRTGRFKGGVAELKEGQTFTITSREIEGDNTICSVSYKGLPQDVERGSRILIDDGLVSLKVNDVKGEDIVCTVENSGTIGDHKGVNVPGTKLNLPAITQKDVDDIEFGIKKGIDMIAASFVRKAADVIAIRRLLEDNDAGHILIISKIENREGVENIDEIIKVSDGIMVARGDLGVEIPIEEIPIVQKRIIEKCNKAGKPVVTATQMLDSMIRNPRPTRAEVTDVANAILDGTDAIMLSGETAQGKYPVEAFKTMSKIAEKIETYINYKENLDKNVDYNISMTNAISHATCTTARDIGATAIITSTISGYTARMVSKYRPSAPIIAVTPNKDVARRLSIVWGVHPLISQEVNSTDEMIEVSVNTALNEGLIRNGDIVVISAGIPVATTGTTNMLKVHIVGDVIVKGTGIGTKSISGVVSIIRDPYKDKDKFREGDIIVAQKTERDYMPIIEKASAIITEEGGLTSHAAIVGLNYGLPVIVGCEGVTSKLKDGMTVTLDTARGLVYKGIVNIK

[2] = target: T2, TsPYK extra-C domain truncated (Thermoanaerobacterium saccharolyticum, UniProt I3VV25); assay: as above; type: biochemical; conditions: allosteric activator; 10 mM ADP, 15 mM MgCl2, 30 °C
T2 construct: gene Tsac_1363; N-terminal 6XHis-MBP-SUMO tag kept; expressed in E. coli QTF60

C. bescii PYK [3] = target: T3, C. bescii PYK (Caldicellulosiruptor bescii, UniProt A0ABY1S964); assay: as above; type: biochemical; conditions: allosteric activator; 10 mM ADP, 15 mM MgCl2, 30 °C
T3 construct: gene SAMN05216240_1829; full length with extra-C domain; N-terminal 6XHis-MBP-SUMO tag kept; expressed in E. coli QTF60
T3 sequence (A0ABY1S964 entry or part of it): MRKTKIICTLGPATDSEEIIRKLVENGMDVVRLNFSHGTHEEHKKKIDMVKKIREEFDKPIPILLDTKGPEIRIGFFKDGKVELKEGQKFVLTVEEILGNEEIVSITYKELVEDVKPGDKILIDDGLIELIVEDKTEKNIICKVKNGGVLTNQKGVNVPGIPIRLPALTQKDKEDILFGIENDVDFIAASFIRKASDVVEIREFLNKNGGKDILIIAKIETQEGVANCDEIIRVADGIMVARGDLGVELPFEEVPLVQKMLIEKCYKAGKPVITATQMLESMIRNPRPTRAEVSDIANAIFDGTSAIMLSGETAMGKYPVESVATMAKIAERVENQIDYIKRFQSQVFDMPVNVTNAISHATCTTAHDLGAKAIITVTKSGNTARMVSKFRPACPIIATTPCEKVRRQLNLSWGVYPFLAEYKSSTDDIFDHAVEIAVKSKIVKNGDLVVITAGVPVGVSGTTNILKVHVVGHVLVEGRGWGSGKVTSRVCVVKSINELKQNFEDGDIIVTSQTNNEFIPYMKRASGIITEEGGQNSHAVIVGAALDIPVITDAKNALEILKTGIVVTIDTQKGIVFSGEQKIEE

TsPYK [4] = target: T1, TsPYK; assay: Kapp–PEP versus effector concentration, lactate dehydrogenase coupled assay, linkage fit; type: biochemical; conditions: Kix in absence of PEP, 10 mM ADP, 15 mM MgCl2, 30 °C
Description: Kapp–PEP versus effector concentration, lactate dehydrogenase coupled assay, linkage fit on TsPYK

E. coli Type A [5] = target: T4, E. coli Type A (Escherichia coli, UniProt P21599); assay: Kapp–PEP versus effector concentration, lactate dehydrogenase coupled assay; type: biochemical; conditions: allosteric activator; 10 mM ADP, 15 mM MgCl2, 30 °C
T4 construct: gene pykA; full length; no extra-C domain; N-terminal 6XHis-MBP-SUMO tag kept; expressed in E. coli QTF60
T4 sequence (P21599 whole entry): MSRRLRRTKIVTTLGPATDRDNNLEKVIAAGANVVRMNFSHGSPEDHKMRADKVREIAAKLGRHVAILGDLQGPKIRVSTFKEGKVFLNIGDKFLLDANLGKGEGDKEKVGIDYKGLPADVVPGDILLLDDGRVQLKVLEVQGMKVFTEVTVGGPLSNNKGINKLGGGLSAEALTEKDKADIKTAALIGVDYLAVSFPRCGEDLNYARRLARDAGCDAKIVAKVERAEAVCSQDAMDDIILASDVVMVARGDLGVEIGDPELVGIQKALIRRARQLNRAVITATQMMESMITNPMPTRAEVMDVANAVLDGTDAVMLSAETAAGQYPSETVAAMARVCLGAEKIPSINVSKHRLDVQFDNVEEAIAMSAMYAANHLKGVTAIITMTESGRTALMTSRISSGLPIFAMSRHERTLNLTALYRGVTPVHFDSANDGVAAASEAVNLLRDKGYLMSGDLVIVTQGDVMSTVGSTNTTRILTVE

C. bescii PYK [6] = target: T3, C. bescii PYK; assay: lactate dehydrogenase coupled NADH assay, A340, Hill fit; type: biochemical; conditions: 10 mM ADP, 15 mM MgCl2, 30 °C; no effector
E. coli Type A [7] = target: T4, E. coli Type A; assay: as above; type: biochemical; conditions: 10 mM ADP, 15 mM MgCl2, 30 °C; no effector
[8] = target: T2, TsPYK extra-C domain truncated; assay: as above; type: biochemical; conditions: 10 mM ADP, 15 mM MgCl2, 30 °C; no effector
E. coli Type F = target: T5, E. coli Type F (Escherichia coli, UniProt P0AD61); assay: as above; type: biochemical; conditions: 10 mM ADP, 15 mM MgCl2, 30 °C; no effector
T5 construct: gene pykF; full length; no extra-C domain; N-terminal 6XHis-MBP-SUMO tag kept; expressed in E. coli QTF60
T5 sequence (P0AD61 whole entry): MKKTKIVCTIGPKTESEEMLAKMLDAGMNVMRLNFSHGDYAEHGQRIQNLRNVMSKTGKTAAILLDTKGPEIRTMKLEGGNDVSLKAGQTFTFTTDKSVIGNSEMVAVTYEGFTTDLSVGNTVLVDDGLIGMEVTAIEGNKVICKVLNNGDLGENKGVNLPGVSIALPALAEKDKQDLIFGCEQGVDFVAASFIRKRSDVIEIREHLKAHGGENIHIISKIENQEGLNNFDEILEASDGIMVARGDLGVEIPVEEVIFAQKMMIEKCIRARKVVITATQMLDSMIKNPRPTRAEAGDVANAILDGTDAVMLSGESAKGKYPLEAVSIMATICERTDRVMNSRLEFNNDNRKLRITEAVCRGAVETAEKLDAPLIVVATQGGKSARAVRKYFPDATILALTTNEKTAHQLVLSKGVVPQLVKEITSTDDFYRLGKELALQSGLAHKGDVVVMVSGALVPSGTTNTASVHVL

[9] = substrate: C=C(OP(=O)(O)O)C(=O)O; assay: as above; type: biochemical, Thermoanaerobacterium saccharolyticum; conditions: 10 mM ADP, 15 mM MgCl2, 195 mM K+, 80 mM Na+, 50 mM HEPES, 30 °C, no effector, ± sign lost in table text
Description: lactate dehydrogenase coupled NADH assay, A340, Hill fit on TsPYK

Molecule: Nc1ncnc2c1ncn2[C@H]1C[C@H](O)[C@@H](COP(=O)(O)O)O1 [2-deoxyadenonsine-5′MP]
Kapp-PEP shift (TsPYK [1]; allosteric activator): generated a response very similar to AMP (slightly reduced binding)

Kd (TsPYK [4]; allosteric activator, ± sign lost in table text, read-out: Kix-AMP): 90 ± 60 µM
Molecule: Nc1ncnc2c1ncn2[C@@H]1O[C@H](COP(=O)(O)O)[C@@H](O)[C@H]1O [AMP]
Kapp-PEP shift [2]: Activation by AMP was not influenced by the removal of the extra-C domain.
Kapp-PEP shift (C. bescii PYK [3]): the isozyme from C. bescii were inhibited by IMP and activated by AMP
Kapp-PEP shift (E. coli Type A [5]): the E. coli type A isozyme was activated by both AMP and IMP

Kd (TsPYK [4]; allosteric inhibitor, ± sign lost in table text (printed 11), read-out: Kix-GMP): 1000 ± 1000 µM
Molecule: Nc1nc2c(ncn2[C@@H]2O[C@H](COP(=O)(O)O)[C@@H](O)[C@H]2O)c(=O)[nH]1 [GMP]

Molecule: C=C(OP(=O)(O)O)C(=O)O [PEP]
Kapp-PEP (C. bescii PYK [6]): The response of three bacterial PYK isozymes to AMP and IMP.
Kapp-PEP (E. coli Type A [7]): The response of three bacterial PYK isozymes to AMP and IMP.
Kapp-PEP [8]: A comparison of responses to IMP and AMP for the full length TsPYK
Kapp-PEP (E. coli Type F): The response of three bacterial PYK isozymes to AMP and IMP.

Kd (TsPYK [4]; allosteric activator, ± sign lost in table text (printed 1110), read-out: Kix-R5P): 11000 ± 10000 µM
Molecule: O=P(O)(O)OC[C@H]1OC(O)[C@H](O)[C@@H]1O (some centres unmarked) [R5P]

Molecule: O=P(O)(O)OC[C@H]1OC(O)(CO)[C@@H](O)[C@@H]1O (some centres unmarked) [fructose-6-phosphate]
Kapp-PEP shift (TsPYK [1]; allosteric inhibitor): glyceraldehyde 3-phosphate, fructose-6-phosphate, IMP or GMP all caused reduced affinity for PEP

Molecule: O=C[C@H](O)COP(=O)(O)O [glyceraldehyde 3-phosphate]
Kapp-PEP shift (TsPYK [1]; allosteric inhibitor): glyceraldehyde 3-phosphate, fructose-6-phosphate, IMP or GMP all caused reduced affinity for PEP

B1: TsPYK (Thermoanaerobacterium saccharolyticum JW/SL-YS485) (protein)
chain: T1 sequence (I3VV25 1-583)
notes: full length with extra-C domain; N-terminal 6XHis tag kept (6XHis-MBP-SUMO tag in later expression); expressed in E. coli FF50 / QTF60 (pykA pykF deleted); homotetramer
K0.5 [9]: 0.63 ± 0.03 mM
